Laboratory results as given in US20070212428A1, “METHODS AND COMPOSITIONS FOR TREATING MOOD DISORDER” (MOOD MANAGEMENT SCIENCES, INC., priority 2004, published 2007).
Counter-ions that a name gives are not always drawn. Like-named read-outs stand apart in the source and are kept apart here.

Legend:
[1] = cited from earlier work; for time to peak plasma concentration: after oral dosing
Dysthymia [2] = assay: Example 10: case, dysthymia with general anxiety disorder; details: earlier treatment with 40 mg
[3] = cited from earlier work
[4] = system: muscarinic, histaminergic, or a-l adrenergic receptors; details: in vitro; cited from earlier work
[5] = system: dopamine neuronal reuptake; details: cited from earlier work
[6] = system: norepinephrine neuronal reuptake; details: cited from earlier work
[7] = system: neuronal serotonin reuptake; details: cited from earlier work
Dysthymia [8] = assay: Example 12: method for treating Dysthymia (a person); format: in vivo, human; details: 10 years prior; 60 mg fluvoxamine, 40 mg paroxetine
monoamine oxidase = details: cited from earlier work
[9] = co-administered with venlafaxine
[10] = 30 mg oral dose, over a 10 day period

CN(C)CCCC1(c2ccc(F)cc2)OCc2cc(C#N)ccc21 (racemic) [citalopram, (±)-1-[3-(dimethylamino)propyl]-1-(4-fluorophenyl)-1,3-dihydro-5-isobenzofuran carbonitrile, hydrobromide]
time to peak plasma concentration [1]: four | time to steady state plasma concentrations ([1]; daily dosing): a week | increase of half life in elderly patients ([1]; elderly patients): 23-50% | elimination half-life ([1]; plasma): about 35 hours

CNCCC(Oc1ccc(C(F)(F)F)cc1)c1ccccc1.Cl (racemic) [fluoxetine, (±)-N-methyl-3-phenyl-[(α,α,α-trifluoro-p-tolyl)oxyl]propylamine hydrochloride]
effect on depressive symptoms (Dysthymia [2]): decreased depressive symptoms | adverse effect (Dysthymia [2]; subsequently discontinued): “dulled” the patient cognitively | half life ([1]; following acute administration): 24 to 72 h

COc1ccc(C(CN(C)C)C2(O)CCCCC2)cc1.Cl (racemic) [venlafaxine, (R/S)-1-[2-(dimethylamino)-1-(4-methoxyphenyl)ethyl] cyclohexanol hydrochloride]
steady-state pharmacokinetics ([3]; venlafaxine 150 mg/day with a single 600 mg oral dose of lithium, 12 healthy males): unaffected | affinity [4]: not significant affinity | oral absorption (in words) ([1]; oral administration): well absorbed | elimination half-life ([1]; plasma): 3 to 7 h | fraction renally excreted within 48 hours ([1]; single dose): 87% | effect on dopamine reuptake (in words) [5]: weak inhibitors | effect on norepinephrine reuptake (in words) [6]: potent inhibitors

NC(=O)N1c2ccccc2CC(O)c2ccccc21 (stereo not drawn) [MHD]
elimination half-life ([1]; human, in vivo): about 9 hours

CN(C)CC(c1ccc(O)cc1)C1(O)CCCCC1 (stereo not drawn) [ODV, O-desmethylvenlafaxine]
affinity [4]: not significant affinity | elimination half-life ([1]; human, in vivo): 9 to 13 h | effect on dopamine reuptake (in words) [5]: weak inhibitors | inhibition of serotonin reuptake (in words) [7]: potent inhibitors | effect on norepinephrine reuptake (in words) [6]: potent inhibitors

Clc1ccc2c(c1)C(N1CCNCC1)=Nc1ccccc1O2 [amoxapine, 2-Chloro-11-(1-piperazinyl)dibenz-[b,f][1,4]oxazepine]
time to peak plasma concentration [1]: approximately 90 minutes | oral absorption (in words) ([1]; oral administration): absorbed rapidly

CN(C)CCCN1c2ccccc2Sc2ccc(Cl)cc21 [chlorpromazine, 10-(3-dimethylaminopropyl)-2-chlorphenothiazine]
oral absorption (in words) ([1]; oral administration): readily absorbed | elimination half-life ([1]; plasma): approximately 30 hours

O=c1ccc2ccc(OCCCCN3CCN(c4cccc(Cl)c4Cl)CC3)cc2[nH]1 [dehydro-aripiprazole]
pharmacokinetics ([3]; lithium (1200-1800 mg/day) for 21 days with aripiprazole (30 mg/day)): did not result in clinically significant changes

COCCCC/C(=N\OCCN)c1ccc(C(F)(F)F)cc1 [fluvoxamine]
outcome of prior antidepressant trials (Dysthymia [8]): unsuccessfully

O=C(CCCN1CCC(O)(c2ccc(Cl)cc2)CC1)c1ccc(F)cc1 [haloperidol, 4-[4-(p-chlorophenyl)-4-hydroxypiperidino]-4′-fluorobutyrophenone]
half life [3, 9]: unchanged | increase of peak plasma concentration (Cmax) [3, 9]: 88% | increase in the area under the plasma concentration curve ([3]; single 2 mg dose of haloperidol with venlafaxine 150 mg/day): 70% | time to peak plasma level ([1]; after i.m. injection): about 20 minutes

CC[C@@H](C(N)=O)N1CCCC1=O [levetiracetam, (−)-(S)-α-ethyl-2-oxo-1-pyrrolidine acetamide]
time to peak plasma concentration [1]: about an hour | reduction of clearance ([1]; moderate renal impairment): 50% | oral absorption (in words) ([1]; oral administration): rapidly and almost completely absorbed | elimination half-life ([1]; plasma): approximately 7 hours | reduction of clearance ([1]; severe renal impairment): 60%

[Li] [lithium]
AUC and peak plasma concentrations of lithium ([3]; co-administered with risperidone): unaffected | kinetics of lithium ([3]; multiple doses of olanzapine (10 mg for 8 days)): did not influence | steady state kinetics of lithium ([3]; valproate (500 mg BID) with lithium carbonate (300 mg TID), normal male volunteers): not effect | steady-state pharmacokinetic parameters of lithium ([3]; with quetiapine (250 mg TID)): no effect | steady-state pharmacokinetics of lithium ([3]; with venlafaxine): unaffected | steady state level and renal clearance of lithium ([3]; ziprasidone (40 mg BID) with lithium (450 mg BID for 7 days)): not affected | CSF lithium level at equilibration relative to the plasma concentration ([1]; human, in vivo): approximately half | fraction eliminated with the feces ([1]; human, in vivo): less than 1% | fraction of a single dose eliminated in urine ([1]; human, in vivo): Approximately 95% | fraction of a single dose excreted in 24 hours ([1]; human, in vivo): About 50% | fraction of the filtered lithium reabsorbed in the tubules ([1]; human, in vivo): 80% | oral absorption (in words) ([1]; oral administration): rapidly absorbed | time to steady state plasma concentrations ([1]; repeated dosing): five to six

CN1CCN(C2=Nc3ccccc3Oc3ccc(Cl)cc32)CC1 [loxapine succinate, 2-Chloro-11-(4-methyl-1-piperazinyl)dibenz[b,f][1,4]oxazepine]
oral absorption (in words) ([1]; oral administration): virtually complete | time of excretion ([1]; oral administration): mainly in the first 24 hours

CNCCCC12CCC(c3ccccc31)c1ccccc12 [maprotiline, N-Methyl-9,10-ethanoanthracene-9(10H)-propanamine]
oral absorption (in words) ([1]; oral administration): completely absorbed

NC(=O)C[S+]([O-])C(c1ccccc1)c1ccccc1 (stereo not drawn) [modafinil, 2-[(diphenylmethyl)sulfinyl]acetamide]
time to peak plasma concentration [1]: 2 to 4 h | oral absorption (in words) ([1]; oral administration): rapid

CCc1nn(CCCN2CCN(c3cccc(Cl)c3)CC2)c(=O)n1CCOc1ccccc1 [nefazodone, 2-[3-[4-(3-chlorophenyl)-1-piperazinyl]propyl]-5-ethyl-2,4-dihydro-4-(2-phenoxyethyl)-3H-,1,2,4-triazo-3-one monohydrochloride]
elimination half-life ([1]; plasma): 2 to 4 h

Fc1ccc([C@@H]2CCNC[C@H]2COc2ccc3c(c2)OCO3)cc1 [paroxetine, (−)-trans-4R-(4′-fluorophenyl)-3S-[(3′,4′-methylenedioxyphenloxy)methyl]piperidine hydrochloride hemihydrate]
outcome of prior antidepressant trials (Dysthymia [8]): unsuccessfully | fraction of dose renally excreted [1, 10]: Approximately 64% | fraction of dose renally excreted as metabolites [1, 10]: 62% | fraction of dose renally excreted as the parent compound [1, 10]: 2% | fraction of dose excreted in the feces ([1]; 30 mg oral dose): 36% | oral absorption (in words) ([1]; oral administration): completely absorbed | time to steady state plasma concentrations ([1]; repeated dosing): approximately 10 days | effect on dopamine reuptake (in words) [5]: only very weak effects | effect on norepinephrine reuptake (in words) [6]: only very weak effects

NNCCc1ccccc1 [phenelzine sulfate, (2-phenethyl)hydrazine]
time to peak plasma concentration [1]: 0.717 h | elimination half-life ([1]; plasma): 11.6 h | inhibition of monoamine oxidase (monoamine oxidase): potent inhibitor

CSc1ccc2c(c1)N(CCC1CCCCN1C)c1ccccc1S2 (stereo not drawn) [thioridazine, 2-methylmercapto-10-[2-(N-methyl-2-piperidyl)ethyl]phenothiazine]
elimination half-life ([1]; plasma): approximately 10 hours

CC1(C)O[C@@H]2[C@@H](CO[C@@]3(COS(N)(=O)=O)OC(C)(C)O[C@@H]23)O1 [topiramate, 2,3:4,5-Di-O-isopropylidene-β-D-fructopyranose sulfamate]
time to peak plasma concentration [1]: approximately 2 hours | reduction of clearance ([1]; moderate renal impairment): 42% | oral absorption (in words) ([1]; oral administration): rapid | time to steady state plasma concentrations ([1]; repeated dosing): about 4 days | reduction of clearance ([1]; severe renal impairment): 54%

O=c1n(CCCN2CCN(c3cccc(Cl)c3)CC2)nc2ccccn12 [trazodone, 2-[3-[4-(3-chlorophenyl)-1-piperazinyl]propyl]-1,2,4-triazolo[4,3-a]pyridin-3(2H)-one]
time to peak plasma levels ([1]; taken with food): two

CCCC(CCC)C(=O)O [valproate, sodium hydrogen bis(2-propylpentanoate)]
effect on each drug's metabolism ([3]; olanzapine co-administered with valproate): little effect

NS(=O)(=O)Cc1noc2ccccc12 [zonisamide, 1,2-benzisoxazole-3-methanesulfonamide]
time to peak plasma concentration [1]: 2 to 6 h | elimination half-life ([1]; plasma): about 63 hours | elimination half-life in RBC ([1]; red blood cells): approximately 105 hours | time to steady state plasma concentrations ([1]; repeated dosing): ≤ 14 days
